Measurements from the Kinase Knowledgebase extract (Sharma et al. 2016).

Target: ROCK2 (human) (UniProt O75116)
Test: Assessment of ROCK2 Kinase Activity

Sequence of ROCK2 (human) (O75116 whole entry, looked up): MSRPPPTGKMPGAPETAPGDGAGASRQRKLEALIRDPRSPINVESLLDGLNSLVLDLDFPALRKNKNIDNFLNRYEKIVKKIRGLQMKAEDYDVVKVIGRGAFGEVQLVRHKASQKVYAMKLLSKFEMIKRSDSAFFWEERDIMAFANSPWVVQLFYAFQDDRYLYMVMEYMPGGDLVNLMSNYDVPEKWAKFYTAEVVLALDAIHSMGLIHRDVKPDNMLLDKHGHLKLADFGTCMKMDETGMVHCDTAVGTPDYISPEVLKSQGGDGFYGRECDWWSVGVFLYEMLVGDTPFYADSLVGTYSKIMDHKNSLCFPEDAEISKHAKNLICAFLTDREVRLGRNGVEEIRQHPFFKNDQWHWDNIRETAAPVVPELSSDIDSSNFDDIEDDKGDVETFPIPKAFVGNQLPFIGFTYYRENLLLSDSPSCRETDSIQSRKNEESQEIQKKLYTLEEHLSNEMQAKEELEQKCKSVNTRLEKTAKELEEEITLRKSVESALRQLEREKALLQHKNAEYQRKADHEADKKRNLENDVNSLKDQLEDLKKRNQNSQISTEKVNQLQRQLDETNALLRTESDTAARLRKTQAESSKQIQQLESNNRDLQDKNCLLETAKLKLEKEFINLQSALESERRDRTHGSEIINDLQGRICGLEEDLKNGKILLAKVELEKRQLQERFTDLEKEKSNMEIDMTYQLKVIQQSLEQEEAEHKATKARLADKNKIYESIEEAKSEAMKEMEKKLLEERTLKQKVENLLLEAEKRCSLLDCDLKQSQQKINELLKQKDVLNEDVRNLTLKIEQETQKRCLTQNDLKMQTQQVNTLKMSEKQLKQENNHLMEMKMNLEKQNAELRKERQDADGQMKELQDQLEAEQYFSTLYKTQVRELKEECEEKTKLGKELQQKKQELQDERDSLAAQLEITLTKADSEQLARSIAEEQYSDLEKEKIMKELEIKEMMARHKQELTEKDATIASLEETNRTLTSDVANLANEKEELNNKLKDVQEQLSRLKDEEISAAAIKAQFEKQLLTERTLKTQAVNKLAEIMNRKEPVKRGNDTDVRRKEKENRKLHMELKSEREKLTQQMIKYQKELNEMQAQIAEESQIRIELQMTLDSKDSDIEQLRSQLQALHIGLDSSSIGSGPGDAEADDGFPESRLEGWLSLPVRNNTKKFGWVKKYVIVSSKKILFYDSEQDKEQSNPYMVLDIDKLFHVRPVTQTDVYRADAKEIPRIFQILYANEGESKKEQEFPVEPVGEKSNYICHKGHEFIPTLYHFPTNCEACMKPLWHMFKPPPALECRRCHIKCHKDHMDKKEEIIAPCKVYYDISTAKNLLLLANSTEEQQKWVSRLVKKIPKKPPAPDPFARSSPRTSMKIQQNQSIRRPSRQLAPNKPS

Q: Which IC50 does the source give for `N[C@H]1CC[C@@H](Oc2ccc3cncc(Cl)c3c2)CC1` here?
A: ≤ 1000 nM

Q: How did the IC50 turn out when `N[C@H]1CC[C@@H](Oc2ccc3cnccc3c2-c2ccsc2)CC1` was run?
A: ≤ 1000 nM

Q: Which IC50 does the source give for `Clc1c(OC2CCC(NC3CCCCC3)CC2)ccc2cnccc12` (stereo not given) here?
A: ≤ 1000 nM

Q: Which IC50 does the source give for `CC1(c2ccc(CNC3CCC(Oc4ccc5cnccc5c4)CC3)cc2)NC(=O)NC1=O` (stereo not given) here?
A: ≤ 1000 nM

Q: Which IC50 does the source give for `c1cc2cc(O[C@H]3CC[C@@H](NC4CC4)CC3)ccc2cn1` here?
A: ≤ 1000 nM

Q: For `COc1cc(Nc2cc3cc(O[C@H]4CC[C@@H](N)CC4)ccc3cn2)cc(OC)c1OC`, which IC50 is on record?
A: ≤ 1000 nM

Q: `c1cncc(CN[C@H]2CC[C@@H](Oc3ccc4cnccc4c3)CC2)c1` was tested. Which IC50 did it give?
A: ≤ 1000 nM

Q: Which IC50 does the source give for `N[C@H]1CC[C@@H](Oc2ccc3cnccc3c2Br)CC1` here?
A: ≤ 1000 nM

Q: Which IC50 does the source give for `CCc1cncc2ccc(O[C@H]3CC[C@@H](N)CC3)cc12` here?
A: ≤ 1000 nM

Q: How did the IC50 turn out when `CC(=O)Nc1ccc(CN[C@H]2CC[C@@H](Oc3ccc4cnccc4c3)CC2)cc1` was run?
A: ≤ 1000 nM

Q: With `CC(C)N[C@H]1CC[C@@H](Oc2ccc3cnccc3c2)CC1` as the molecule, how does the IC50 read?
A: ≤ 1000 nM

Q: Which IC50 does the source give for `N[C@H]1CC[C@@H](Oc2ccc3cnccc3c2Cl)CC1` here?
A: ≤ 1000 nM

Q: Which IC50 does the source give for `CN(C)C=NS(=O)(=O)c1cc(CN[C@H]2CC[C@@H](Oc3ccc4cnccc4c3Cl)CC2)ccc1Cl` here?
A: ≤ 1000 nM

Q: Which IC50 does the source give for `N[C@H]1CC[C@H](Oc2c(Cl)cc3cnccc3c2Cl)CC1` here?
A: ≤ 1000 nM

Q: With `C=Cc1c(O[C@H]2CC[C@@H](N)CC2)ccc2cnccc12` as the molecule, how does the IC50 read?
A: ≤ 1000 nM
